Experimental data from patent US20140093884A1, “Process for Identifying Novel Anti-Inflammatory Molecules with Reduced Direct Transrepression of Genes Induced by Glucocorticoids” (UNIVERSITE DE STRASBOURG, priority 2011, published 2014).

Assays:
[1] = system: TSLP; assay: TSLP transcript levels in mouse ear epidermis after topical treatment (Q-RT-PCR); type: in vivo; details: WT mice
From the text: Mice. […] Real time PCR. Total RNA was reverse transcribed using hexamers, followed by Q-PCR, as reported (Li et al., 2005). The GC agonist fluocinolone acetonide (FA) was applied to ears of mice concomitantly treated with the “low-calcemic” Vitamin D3 (VitD3) analog MC903 (Calcipotriol; hereafter called MC) to trigger TSLP expression (Li et al., 2006). […] As expected, the expression of the GC-inducible GPX3 (glutathione peroxidase 3) gene which harbours a (+)GRE (Tuckermann et al., 1999) was enhanced by FA (FIG. 10) and inhibited by RU co-treatment, while FA or RU had no effect on MC-dependent expression of the CYP24A1 gene (a VitD3 target) (FIG. 10). […] Although the basal TSLP level was similar in vehicle-treated WT and GR^ep−/− mice, FA blocked MC-induced TSLP expression in WT, but not in GR^ep−/− mice (not shown).

[2] = system: TSLP; assay: Nuclear run-on assay of TSLP expression; type: in vivo, mouse
From the text: Nuclear run-on, EMSA, 3C and Luciferase assays. Nuclear Run-on and EMSA (Carey and Smale., 2001), 3C (Liu et al., 2005) and Luciferase assays (Promega kit) were as described. […] Although the basal TSLP level was similar in vehicle-treated WT and GR^ep−/− mice, FA blocked MC-induced TSLP expression in WT, but not in GR^ep−/− mice (not shown).

[3] = system: VDRE reporter plasmid (IR nGRE element deleted); assay: Luciferase reporter assay in A549 cells, VDRE reporter without IR1 nGRE; type: cell-based, human; details: FA addition
Experimental: Luciferase reporter assay. A549 cells seeded on 24-well tissue culture plates overnight at 70% confluency were transfected with 100 ng pCMV β galactosidase, 200 ng pGL3 reporter plasmids and wherever indicated, with 600 ng pSG5 hVDR plasmid (Green et al., 1988) into each well and maintained in medium containing charcoal treated FCS. 24 hours post-transfection, medium was changed and different compounds were added to it for 6 hours. Final concentrations of the compounds are: FA, 500 nM; Dex or RU24858, 300 nM or 500 nM (wherever 300 nM Dex or RU was used, it is indicated in the figure, in all other cases, 500 nM concentration was used); active vitamin D3, 1 μM; IL-1β, 5 ng/ml; BAY 11-7082, 5 μM, JNK inhibitor II, 25 μM. Luciferase assay was carried out as instructed (Promega). Normalized values are reported as the mean±SEM; each value originates from at least three individual transfections with assays performed in duplicate. […]

[4] = system: GPX3 (glutathione peroxidase 3) gene, (+)GRE; assay: GPX3 transcript levels in mouse ear epidermis after topical treatment (Q-RT-PCR); type: in vivo; details: WT mice, ears, topical FA, FIG. 10
From the text: (§1) Mice. […] Real time PCR. Total RNA was reverse transcribed using hexamers, followed by Q-PCR, as reported (Li et al., 2005). The GC agonist fluocinolone acetonide (FA) was applied to ears of mice concomitantly treated with the “low-calcemic” Vitamin D3 (VitD3) analog MC903 (Calcipotriol; hereafter called MC) to trigger TSLP expression (Li et al., 2006). […] As expected, the expression of the GC-inducible GPX3 (glutathione peroxidase 3) gene which harbours a (+)GRE (Tuckermann et al., 1999) was enhanced by FA (FIG. 10) and inhibited by RU co-treatment, while FA or RU had no effect on MC-dependent expression of the CYP24A1 gene (a VitD3 target) (FIG. 10).

[5] = system: CYP24A1 gene (a VitD3 target); assay: CYP24A1 transcript levels in mouse ear epidermis after topical treatment (Q-RT-PCR); type: in vivo; details: mouse ears, FIG. 10
From the text: as §1

expression of GPX3 gene [4]: enhanced
SMILES: CC1(C)O[C@@H]2C[C@H]3[C@@H]4C[C@H](F)C5=CC(=O)C=C[C@]5(C)[C@@]4(F)[C@@H](O)C[C@]3(C)[C@]2(C(=O)CO)O1 [FA, fluocinolone acetonide]
MC-induced TSLP expression, effect of FA [1]: blocked | inhibition of basal TSLP RNA level ([1]; ears, topical FA): ~50% | MC-induced increase of TSLP RNA, effect of FA ([1]; ears, topical, MC903 co-treatment): fully blocked | nature of GR-mediated FA inhibition of TSLP expression [2]: transcriptional | luciferase expression in absence of IR1 nGRE [3]: did not affect | effect on MC-dependent expression of the CYP24A1 gene [5]: no effect
